In ChEMBL document CHEMBL1201862, “PubChem BioAssay data set” (2004):
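Five compound concentrations were applied to cells in 96-well plates for 48 hours; endpoints were derived by simple linear interpolation of the resulting dose-response curve. GI50 = concentration required for 50% inhibition of growth.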 Active and inactive are the calls of the source. Cut-off read from the data, not from the text of the source: active = GI50 up to about 1.1 µM and inactive = higher.

What was measured:
Assay in all cases: inhibition of tumour cell growth, NCI panel, 48 h
M14 = test system: M14
SR = test system: SR
HCT-116 = test system: HCT-116
HL-60 = test system: HL-60
SW-620 = test system: SW-620
SF-295 = test system: SF-295
A549 = test system: A549
SN12C = test system: SN12C
HT-29 = test system: HT-29
SK-OV-3 = test system: SK-OV-3
SNB-19 = test system: SNB-19
U-251 = test system: U-251
SF-268 = test system: SF-268
KM12 = test system: KM12
SF-539 = test system: SF-539
SK-MEL-28 = test system: SK-MEL-28
CCRF-CEM = test system: CCRF-CEM
RPMI-8226 = test system: RPMI-8226
CAKI-1 = test system: CAKI-1
IGROV-1 = test system: IGROV-1

Compound | GI50 (M14) | GI50 (SR) | GI50 (HCT-116) | GI50 (HL-60) | GI50 (SW-620) | GI50 (SF-295) | GI50 (A549) | GI50 (SN12C) | GI50 (HT-29) | GI50 (SK-OV-3) | GI50 (SNB-19) | GI50 (U-251) | GI50 (SF-268) | GI50 (KM12) | GI50 (SF-539) | GI50 (SK-MEL-28) | GI50 (CCRF-CEM) | GI50 (RPMI-8226) | GI50 (CAKI-1) | GI50 (IGROV-1)
CC(SC1=CC(=O)c2c(O)ccc(O)c2C1=O)C(=O)O (stereo not given) | 32.1 µM (inactive) | > 52.8 µM (inactive) | 31.2 µM (inactive) | 13.6 µM (inactive) | > 40.8 µM (inactive) | > 100 µM (inactive) | 97.3 µM (inactive) | > 48.2 µM (inactive) | 41.7 µM (inactive) | > 100 µM (inactive) | > 100 µM (inactive) | > 42.1 µM (inactive) | 48 µM (inactive) | > 100 µM (inactive) | > 68.5 µM (inactive) | > 55.1 µM (inactive) | 3.08 µM (inactive) | > 52.8 µM (inactive) | 27.4 µM (inactive) | > 44.9 µM (inactive)
COc1cc([C@@H]2c3cc4c(cc3[C@@H](Nc3ccc(Cl)cc3C(=O)c3ccccc3Cl)[C@H]3COC(=O)[C@H]23)OCO4)cc(OC)c1OC | 0.303 µM (active) | 0.0713 µM (active) | 0.0738 µM (active) | 0.0695 µM (active) | 0.122 µM (active) | 0.121 µM (active) | 0.34 µM (active) | 0.371 µM (active) | 0.09 µM (active) | 1.19 µM (inactive) | 0.174 µM (active) | 0.0998 µM (active) | 0.189 µM (active) | 0.091 µM (active) | 0.076 µM (active) | 0.333 µM (active) | 0.101 µM (active) | 0.173 µM (active) | 0.152 µM (active) | 0.261 µM (active)
COC(=O)C1(F)C(=O)NC(=O)NC1O (stereo not given) | > 100 µM (inactive) | > 53 µM (inactive) | 50.8 µM (inactive) | 31 µM (inactive) | > 77.6 µM (inactive) | > 100 µM (inactive) | 90.8 µM (inactive) | > 100 µM (inactive) | > 66.5 µM (inactive) | > 100 µM (inactive) | > 100 µM (inactive) | > 100 µM (inactive) | > 100 µM (inactive) | 50.2 µM (inactive) | 25.4 µM (inactive) | > 100 µM (inactive) | > 89.1 µM (inactive) | > 100 µM (inactive) | 97.9 µM (inactive) | > 100 µM (inactive)
COc1cccc(/C=C/C(=O)c2sc(C(N)=S)nc2C)c1O | > 77.4 µM (inactive) | 12.5 µM (inactive) | 38.5 µM (inactive) | 22.2 µM (inactive) | 21.2 µM (inactive) | > 94.6 µM (inactive) | > 100 µM (inactive) | > 100 µM (inactive) | > 100 µM (inactive) | > 100 µM (inactive) | > 100 µM (inactive) | 28.8 µM (inactive) | > 86.3 µM (inactive) | > 62.2 µM (inactive) | 52.7 µM (inactive) | > 100 µM (inactive) | 21.4 µM (inactive) | 20.5 µM (inactive) | > 100 µM (inactive) | > 61.5 µM (inactive)
CC(CO)(CO)N1C(=O)C2C3C=CC(C3)C2C1=O (stereo not given) | > 100 µM (inactive) | > 100 µM (inactive) | > 100 µM (inactive) | > 100 µM (inactive) | > 100 µM (inactive) | > 100 µM (inactive) | > 100 µM (inactive) | > 100 µM (inactive) | > 100 µM (inactive) | > 100 µM (inactive) | > 100 µM (inactive) | > 100 µM (inactive) | > 100 µM (inactive) | > 100 µM (inactive) | > 100 µM (inactive) | > 100 µM (inactive) | > 100 µM (inactive) | > 100 µM (inactive) | > 100 µM (inactive) | > 100 µM (inactive)
CCn1c(SCC(=O)N/N=C/c2ccccc2)nc2ccccc2c1=O | 7.16 µM (inactive) | 0.478 µM (active) | 5.42 µM (inactive) | 4.8 µM (inactive) | 1.99 µM (inactive) | 4.7 µM (inactive) | 4.89 µM (inactive) | 13.1 µM (inactive) | 4.06 µM (inactive) | 17.8 µM (inactive) | 18.5 µM (inactive) | 18.5 µM (inactive) | 15.8 µM (inactive) | 3.64 µM (inactive) | 10.4 µM (inactive) | 39.4 µM (inactive) | 9.89 µM (inactive) | 14.2 µM (inactive) | 9.08 µM (inactive) | 12.9 µM (inactive)
COc1ccc2cc(CN3CCC(C4CCN(Cc5ccc6cc(OC)ccc6c5)CC4)CC3)ccc2c1 | 2.33 µM (inactive) | 1.24 µM (inactive) | 2.39 µM (inactive) | 2.33 µM (inactive) | 2.64 µM (inactive) | 2.99 µM (inactive) | 24.9 µM (inactive) | 8.95 µM (inactive) | 2.2 µM (inactive) | 26.3 µM (inactive) | 3.2 µM (inactive) | 2.52 µM (inactive) | 3.16 µM (inactive) | 2.43 µM (inactive) | 3.19 µM (inactive) | 2.21 µM (inactive) | 2.16 µM (inactive) | 1.52 µM (inactive) | 2.73 µM (inactive) | 8.77 µM (inactive)
O=C(NS(=O)(=O)OCC(Cl)(Cl)Cl)SCCC(F)(F)C(F)(F)C(F)(F)C(F)(F)C(F)(F)C(F)(F)F | 23.1 µM (inactive) | 32.7 µM (inactive) | 19.8 µM (inactive) | 23.1 µM (inactive) | 20.2 µM (inactive) | 20.2 µM (inactive) | 30.2 µM (inactive) | 32.4 µM (inactive) | 18.8 µM (inactive) | 17.7 µM (inactive) | 17.9 µM (inactive) | 23.6 µM (inactive) | 40.4 µM (inactive) | 19.9 µM (inactive) | 16.8 µM (inactive) | 22.7 µM (inactive) | 22.8 µM (inactive) | 18.5 µM (inactive) | 30.5 µM (inactive) | 37.4 µM (inactive)
O=C(O)CNC(=O)c1cccc2c(=O)c3ccccc3[nH]c12 | > 100 µM (inactive) | 14.9 µM (inactive) | > 100 µM (inactive) | > 100 µM (inactive) | > 100 µM (inactive) | > 100 µM (inactive) | > 100 µM (inactive) | > 100 µM (inactive) | > 100 µM (inactive) | > 100 µM (inactive) | > 100 µM (inactive) | > 100 µM (inactive) | > 100 µM (inactive) | > 20.9 µM (inactive) | > 100 µM (inactive) | > 100 µM (inactive) | 97.3 µM (inactive) | > 100 µM (inactive) | > 100 µM (inactive) | 26.9 µM (inactive)
CCC(Sc1cc(Cl)c(C)cc1S(=O)(=O)Nc1nc(N)nc(N(C)C)n1)C(=O)O (stereo not given) | > 10 µM (inactive) | > 10 µM (inactive) | > 10 µM (inactive) | > 10 µM (inactive) | > 10 µM (inactive) | > 10 µM (inactive) | > 10 µM (inactive) | > 10 µM (inactive) | > 10 µM (inactive) | > 10 µM (inactive) | > 10 µM (inactive) | > 10 µM (inactive) | > 10 µM (inactive) | > 10 µM (inactive) | > 10 µM (inactive) | > 10 µM (inactive) | > 10 µM (inactive) | > 10 µM (inactive) | > 10 µM (inactive) | > 10 µM (inactive)
COc1ccc(/C=c2/s/c(=C(\C#N)c3nc4ccccc4[nH]3)n(-c3ccccc3)c2=O)cc1 | > 56.9 µM (inactive) | > 100 µM (inactive) | 24.7 µM (inactive) | > 100 µM (inactive) | 25.2 µM (inactive) | 15.3 µM (inactive) | 51.2 µM (inactive) | > 80.2 µM (inactive) | 6.12 µM (inactive) | 2.96 µM (inactive) | 47.1 µM (inactive) | 48.1 µM (inactive) | 31.7 µM (inactive) | 56.6 µM (inactive) | 25.1 µM (inactive) | 48.2 µM (inactive) | > 100 µM (inactive) | > 100 µM (inactive) | > 69.3 µM (inactive) | > 54.5 µM (inactive)
COc1ccc2c(c1)c(=O)c1ccccc1n2/C=C/C(=O)O | > 100 µM (inactive) | > 41.7 µM (inactive) | > 100 µM (inactive) | > 46.8 µM (inactive) | > 100 µM (inactive) | > 100 µM (inactive) | > 100 µM (inactive) | > 100 µM (inactive) | > 74.8 µM (inactive) | > 100 µM (inactive) | > 100 µM (inactive) | > 27 µM (inactive) | > 68.2 µM (inactive) | > 100 µM (inactive) | > 100 µM (inactive) | > 100 µM (inactive) | > 48.4 µM (inactive) | > 100 µM (inactive) | > 100 µM (inactive) | > 100 µM (inactive)
COc1cc(/C=C2/C(=O)NC(Cc3cc(OC)c(OC)c(C)c3OC)C(=O)N2Cc2ccccc2)c(OC)c(C)c1OC (stereo not given) | 33 µM (inactive) | 14.3 µM (inactive) | > 100 µM (inactive) | 24.4 µM (inactive) | 80.2 µM (inactive) | 50.5 µM (inactive) | > 100 µM (inactive) | 54.3 µM (inactive) | 79.8 µM (inactive) | 49.2 µM (inactive) | 81.3 µM (inactive) | 48.2 µM (inactive) | 69.5 µM (inactive) | 55.5 µM (inactive) | 75 µM (inactive) | > 100 µM (inactive) | 39.7 µM (inactive) | 24.3 µM (inactive) | 39.6 µM (inactive) | 61.9 µM (inactive)
C/C(=N\N=C(/S)N1CCCCCC1)c1cccc[n+]1[O-] | 2.72 µM (inactive) | 4.01 µM (inactive) | 0.433 µM (active) | 0.336 µM (active) | 1.64 µM (inactive) | 5.3 µM (inactive) | 4.36 µM (inactive) | 13.8 µM (inactive) | 0.31 µM (active) | 20.8 µM (inactive) | 7.41 µM (inactive) | 6.28 µM (inactive) | 9.29 µM (inactive) | 4.52 µM (inactive) | 4.54 µM (inactive) | 6.58 µM (inactive) | 0.109 µM (active) | 0.116 µM (active) | 6.37 µM (inactive) | 1.91 µM (inactive)
